Experimental findings from US12622915B2, “Methods of treating PDE IV-mediated diseases or conditions” (Vanda Pharmaceuticals Inc., priority 2020, dated 2026) are described below.

The subject of assay [1] is PMA-induced ear thickening and ear weight gain. Description: PMA-induced ear inflammation model (Example 1). Type of assay: in vivo, BALB/c. The following applies: 6 hours post PMA, topical 0.5% w/v on both ears 30 min before and 15 min after PMA. On the procedure: Animals in group 2, 3, and 4 receive dexamethasone, Crisaborole and the compound of Formula (I), respectively (as a solution in acetone and ethanol by 1:1 ratio), 30 min before PMA challenge, on both ears.
• −24 hr—Randomization (body weight based) • −30 min—Treatment Topical • 0 min—Disease Induction PMA application • 15 min—Treatment Topical • 6 hr—Skin Thickness, Skin Collection (Cohort 1) • 24 hr—Skin Thickness, Skin Collection (Cohort 2)
5 μg/20 μl/right ear and 5 μg/20 μl/left ear (2.5 μg/10 μl in anterior and posterior surface of both ears)
Phorbol 12-myristate 13-acetate (PMA) is formulated in acetone at a concentration of 250 μg/ml. This working solution is applied topically to the anterior and posterior surface of both the ear (10 μl each side).
Ear thickness (both right and left ear): at −1 hr (before PMA challenge), 6 hr and 24 hrs post PMA challenge.
At 6 hr and 24 hrs, respective cohort of animals are euthanized, and ear tissues are collected. […] Left ears are collected and preserved in 10% NBF for Histopathology.

The next assay concerns the target T1, Phosphodiesterase PDE6 (Bos taurus, UniProt P11541+P23439).
T1 construct: Source: Bovine retinal rod outer segments; from tissue; host or cells: bovine retinal rod outer segments
T1 sequence (P11541 2-856 limits assumed): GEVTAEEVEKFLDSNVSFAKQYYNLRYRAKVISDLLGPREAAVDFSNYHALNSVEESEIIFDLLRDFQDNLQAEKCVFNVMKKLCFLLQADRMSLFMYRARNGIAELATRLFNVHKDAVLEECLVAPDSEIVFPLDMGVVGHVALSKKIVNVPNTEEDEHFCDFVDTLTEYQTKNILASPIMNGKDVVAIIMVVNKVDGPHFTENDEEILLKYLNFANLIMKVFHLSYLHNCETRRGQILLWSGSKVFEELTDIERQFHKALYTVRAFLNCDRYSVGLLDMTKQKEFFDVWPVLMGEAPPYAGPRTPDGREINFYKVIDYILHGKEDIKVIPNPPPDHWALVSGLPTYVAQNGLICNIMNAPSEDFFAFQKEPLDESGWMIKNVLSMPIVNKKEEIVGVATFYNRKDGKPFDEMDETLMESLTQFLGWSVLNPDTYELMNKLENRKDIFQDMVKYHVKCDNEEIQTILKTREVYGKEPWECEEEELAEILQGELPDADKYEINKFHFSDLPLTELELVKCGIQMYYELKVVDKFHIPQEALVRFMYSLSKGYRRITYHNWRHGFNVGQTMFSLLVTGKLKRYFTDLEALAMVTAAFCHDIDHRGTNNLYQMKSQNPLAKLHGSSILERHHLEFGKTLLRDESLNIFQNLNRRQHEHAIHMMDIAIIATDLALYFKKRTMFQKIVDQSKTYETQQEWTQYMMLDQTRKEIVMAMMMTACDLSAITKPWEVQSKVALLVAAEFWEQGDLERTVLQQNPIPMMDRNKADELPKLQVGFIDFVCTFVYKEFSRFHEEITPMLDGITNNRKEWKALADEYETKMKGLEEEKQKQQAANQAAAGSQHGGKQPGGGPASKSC
T1 sequence (P23439 2-850 limits assumed): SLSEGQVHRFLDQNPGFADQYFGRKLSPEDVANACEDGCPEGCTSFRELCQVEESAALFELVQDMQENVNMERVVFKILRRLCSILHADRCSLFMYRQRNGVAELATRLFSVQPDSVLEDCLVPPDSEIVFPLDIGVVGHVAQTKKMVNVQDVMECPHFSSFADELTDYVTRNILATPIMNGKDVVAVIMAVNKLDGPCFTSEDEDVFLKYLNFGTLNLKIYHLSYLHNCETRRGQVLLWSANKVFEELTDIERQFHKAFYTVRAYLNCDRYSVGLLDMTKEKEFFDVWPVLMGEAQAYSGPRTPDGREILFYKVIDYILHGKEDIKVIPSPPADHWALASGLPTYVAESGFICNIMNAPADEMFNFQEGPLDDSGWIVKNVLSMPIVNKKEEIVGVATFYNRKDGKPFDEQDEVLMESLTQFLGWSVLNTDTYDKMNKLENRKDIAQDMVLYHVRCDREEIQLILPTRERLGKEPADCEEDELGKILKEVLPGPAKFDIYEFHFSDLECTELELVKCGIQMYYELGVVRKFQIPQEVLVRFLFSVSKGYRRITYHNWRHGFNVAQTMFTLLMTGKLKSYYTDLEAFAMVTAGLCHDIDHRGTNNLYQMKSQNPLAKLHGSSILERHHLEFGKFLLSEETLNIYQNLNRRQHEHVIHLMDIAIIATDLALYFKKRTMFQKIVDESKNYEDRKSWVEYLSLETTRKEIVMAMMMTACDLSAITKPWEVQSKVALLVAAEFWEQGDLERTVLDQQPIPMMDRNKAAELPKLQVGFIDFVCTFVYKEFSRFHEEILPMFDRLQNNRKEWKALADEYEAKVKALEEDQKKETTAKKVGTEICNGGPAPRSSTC
Put plainly: Phosphodiesterase PDE6 enzyme assay. In kind it is biochemical, bovine. The following applies: N=2, Example 3. The text has this: Reference standards are run as an integral part of each assay to ensure the validity of the results obtained. Reference Compounds: • Phosphodiesterase PDE10A2 Papaverine • Phosphodiesterase PDE11A4 Dipyridamole • Phosphodiesterase PDE1A MMPX • Phosphodiesterase PDE2A EHNA • Phosphodiesterase PDE3A Cilostamide • Phosphodiesterase PDE4A1A Rolipram • Phosphodiesterase PDE4B1 Rolipram • Phosphodiesterase PDE5A Zaprinast • Phosphodiesterase PDE6 Zaprinast • Phosphodiesterase PDE7A IBMX • Phosphodiesterase PDE7B IBMX • Phosphodiesterase PDE8A1 Dipyridamole • Phosphodiesterase PDE9A2 Zaprinast
Phosphodiesterase PDE6: • Source: Bovine retinal rod outer segments • Substrate: 100 μM [^3H]cGMP+cGMP • Vehicle: 1.00% DMSO • Significance Crit.: ≥50% of max stimulation or inhibition • Incubation Buffer: 50 mM Tris-HCl, pH 7.5, 5 mM MgCl2 • Quantitation Method: Quantitation of [^3H]Guanosine • Pre-Incub. […]
IC50 values are determined by a non-linear, least squares regression analysis using MathIQ™ (ID Business Solutions Ltd., UK). Where inhibition constants (Ki) are presented, the Ki values are calculated using the equation of Cheng and Prusoff (Cheng, Y., Prusoff, W. H., Biochem. Pharmacol. 22:3099-3108, 1973) using the observed IC50 of the tested compound, the concentration of radioligand employed in the assay, and the historical values for the KD of the ligand. […]

As for `CNc1nc(Nc2ccccc2)nc(OCC(F)(F)C(F)F)n1` [compound of Formula (I), N^2-methyl-N^4-phenyl-6-(2,2,3,3-tetrafluoropropoxy)-1,3,5-triazine-2,4-diamine], in assay [1], the PMA-induced ear thickening result was “prevents or reduces” and the “PMA-induced ear weight gain” value is on record as “prevents or reduces”. In addition, the inhibition at 10 µM against Phosphodiesterase PDE6 came to 8%.

A word on the inhibition: it is the change of the read-out against control, counted positive when it falls.
